We go through twelve molecules from patent EP0618796B1 (priority 1991, dated 1993).

As a reminder, the IC20 is the point of the concentration-response curve where the effect stands at 20%.

Structures are written as SMILES.

The first experiment deals with RAT MAST CELL. Briefly: Inhibition of rat mast cell degranulation in vitro (histamine release). It counts as cell-based, rats. The following applies: ID20 = inhibitory dose causing 20% inhibition, mast cells stimulated in vitro. From the text: First, mast cells from rats (peritoneal cavity) or humans (chronic peritoneal dialysis fluid) are purified; otherwise, rat basophilic leukemia (RBL) cells are kept in culture. Any of these mast cells are then exposed to various concentrations of inhibitory compounds to allow binding of the inhibitor to the receptor sites before testing their efficacy with respect to inhibition of mast cell degranulation. They are then used as such or washed free of unbound drug before exposure to stimuli known to induce degranulation. Compounds which are inhibitory prevent the stimulus from causing degranulation by binding to specific receptors or inactivating a crucial step in the degranulation process.
The mast cell degranulation blocking agent is administered in a pharmaceutically effective amount. The dosage range for pharmaceutical effectiveness can be determined by reference to standard laboratory tests for inhibition of mast cell degranulation and by the dosages used for such agents in other conditions. The pharmaceutically effective dose of the mast cell degranulation blocking agent can be approximated by its ID20, which is defined as the dose necessary to cause 20% inhibition in mast cells when applied to mast cells stimulated in vitro. The ID20 of selected inhibitors of the anti-histamine category is as follows: Table 2
Turning to `CN1CCC(=C2c3ccccc3CCc3cccnc32)CC1` [Azatadine], the IC20 was determined as 0.1 µM.
Same read-out and setting: the same measure for `CN1CCC(=C2c3ccccc3C=Cc3ccccc32)CC1` [Cyproheptadine]: 5 µM; for `OCCOCCN1CCN(C(c2ccccc2)c2ccc(Cl)cc2)CC1` (stereo not shown) [Hydroxyzine]: 50 µM; for `CN1CCC(=C2c3ccccc3CC(=O)c3sccc32)CC1` [Ketotifen]: 10 µM.
Same read-out and setting: the figure for `O=c1[nH]c2ccccc2n1CCCN1CCN(C(c2ccccc2)c2ccccc2)CC1` [Oxatomide] is 0.1 µM; for `CC(C)(C)c1ccc(C(O)CCCN2CCC(C(O)(c3ccccc3)c3ccccc3)CC2)cc1` (stereo not shown) [Terfenadine] it is 5 µM.

The next experiment concerns Rat Mesentery Mast Cells.
Assay: not given
The note with it: ED20 = effective dose causing 20% secretion; antihistamines which cause mast cell degranulation; cited from earlier work.
Regarding `CN(C)CCC(c1ccc(Cl)cc1)c1ccccn1` (stereo not shown) [Clorphenyramine], the “ED20 for Histamine Release” value is on record as 10^-3 M.
On to `CN1CCN(C(c2ccccc2)c2ccccc2)CC1` [Cyclizine], for which the “ED20 for Histamine Release” value was 0.0005 M.
In the case of `CN(C)CCOC(c1ccccc1)c1ccccc1` [Diphenhydramine], the “ED20 for Histamine Release” value is given as 10^-3 M.
With `CC(CN1c2ccccc2Sc2ccccc21)N(C)C` (stereo not shown) [Promethazine], the “ED20 for Histamine Release” value is 10^-4 M.

Tested on in a further experiment: not given
Assay: not given
The following applies: intramuscular administration during severe migraine; hydroxyzine 50 mg; compared with placebo; cited from earlier work.
With `OCCOCCN1CCN(C(c2ccccc2)c2ccc(Cl)cc2)CC1` (stereo not shown) [Hydroxyzine], the “effectiveness in the treatment of pain associated with classic migraine” value was “no more effective than a placebo”.
Turning to `Oc1ccc2c3c1O[C@H]1[C@@H](O)CC[C@@]4(O)[C@@H](C2)N(CC2CCC2)CC[C@]314` [nalbuphine], the “effectiveness in the treatment of pain associated with classic migraine” value was “no more effective than a placebo”.

Tested on in a further experiment: not given
Assay: not given
The following applies: administered individually, without analgesic; cited from earlier work.
`CC(C)(C)c1ccc(CN2CCN(C(c3ccccc3)c3ccc(Cl)cc3)CC2)cc1` (stereo not shown) [Buclizine, buclizine]: the effectiveness against migraine entry was “ineffective”.
